Reference: patent US10336732B2, “1-heterocyclyl isochromanyl compounds and analogs for treating CNS disorders” (Sunovion Pharmaceuticals Inc., priority 2015, dated 2019)

Tested on: mice
Experiment: Neuropharmacological assay (SmartCube), behavioral signature of compound-treated mice
Assay type: in vivo
Details: i.p. 15 min before behavioral test, most efficacious dose(s) of 3 doses
Outline: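 Read-out is an automated video-based behavioral signature, scored as per-class probabilities (e.g., anxiolytic, antidepressant) against reference compounds. Dosing was i.p. at three doses, 15 min pre-test, in NMP, polyethylene glycol and propylene glycol. Values shown are from the most efficacious dose(s).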

| Structure (SMILES) | AD: ADHD (probability that behavioral signature matches class) | AG: analgesic (probability that behavioral signature matches class) | AX: anxiolytic (probability that behavioral signature matches class) | CE: cognitive enhancer (probability that behavioral signature matches class) | DP: anti-depressant (probability that behavioral signature matches class) | HA: hallucinogen (probability that behavioral signature matches class) | MS: mood stabilizer (probability that behavioral signature matches class) | PS: anti-psychotic (probability that behavioral signature matches class) | SD: sedative hypnotic (probability that behavioral signature matches class) | UN: uncharacterized CNS activity (probability that behavioral signature matches class) |
| --- | --- | --- | --- | --- | --- | --- | --- | --- | --- | --- |
| Fc1cccc2c1[C@H]([C@H]1CCCN1)OCC2 [Compound I-4, (R)-2-((R)-8-fluoroisochroman-1-yl)pyrrolidine] | + (LOQ ≤ + <5%) | ++ (5% ≤ ++ <25%) | +++ (25% ≤ +++ <50%) | ++ (5% ≤ ++ <25%) | ++ (5% ≤ ++ <25%) | + (LOQ ≤ + <5%) | + (LOQ ≤ + <5%) | ++ (5% ≤ ++ <25%) | + (LOQ ≤ + <5%) | + (LOQ ≤ + <5%) |
| CC1(C)CN[C@H]([C@H]2OCCc3ccccc32)C1 [Compound I-60, (S)-2-((S)-isochroman-1-yl)-4,4-dimethylpyrrolidine] | + (LOQ ≤ + <5%) | ++ (5% ≤ ++ <25%) | ++ (5% ≤ ++ <25%) | ++ (5% ≤ ++ <25%) | ++ (5% ≤ ++ <25%) | + (LOQ ≤ + <5%) | + (LOQ ≤ + <5%) | +++ (25% ≤ +++ <50%) | ++ (5% ≤ ++ <25%) | ++ (5% ≤ ++ <25%) |
| Cc1cccc2c1[C@@H]([C@H]1CCCN1)OCC2 [Compound I-24, (R)-2-((S)-8-methylisochroman-1-yl)pyrrolidine] | + (LOQ ≤ + <5%) | ++ (5% ≤ ++ <25%) | ++ (5% ≤ ++ <25%) | ++ (5% ≤ ++ <25%) | +++ (25% ≤ +++ <50%) | + (LOQ ≤ + <5%) | ++ (5% ≤ ++ <25%) | ++ (5% ≤ ++ <25%) | ++ (5% ≤ ++ <25%) | + (LOQ ≤ + <5%) |
| Fc1cccc2c1CCO[C@H]2[C@@H]1CCCN1 [Compound I-13, (S)-2-((R)-5-fluoroisochroman-1-yl)pyrrolidine] | + (LOQ ≤ + <5%) | ++ (5% ≤ ++ <25%) | ++ (5% ≤ ++ <25%) | ++ (5% ≤ ++ <25%) | +++ (25% ≤ +++ <50%) | + (LOQ ≤ + <5%) | ++ (5% ≤ ++ <25%) | ++++ (50% ≤ ++++) | + (LOQ ≤ + <5%) | ++ (5% ≤ ++ <25%) |
| c1cc(-c2ccc3c(c2)CCO[C@H]3[C@@H]2CCCN2)on1 [Compound I-56, 5-((R)-1-((S)-pyrrolidin-2-yl)isochroman-6-yl)isoxazole] | ++ (5% ≤ ++ <25%) | +++ (25% ≤ +++ <50%) | ++ (5% ≤ ++ <25%) | ++ (5% ≤ ++ <25%) | +++ (25% ≤ +++ <50%) | + (LOQ ≤ + <5%) | ++ (5% ≤ ++ <25%) | ++ (5% ≤ ++ <25%) | + (LOQ ≤ + <5%) | + (LOQ ≤ + <5%) |
| C[C@]1([C@H]2CCCN2)OCc2cc(F)ccc21 [Compound I-125, (R)-2-((S)-5-fluoro-1-methyl-1,3-dihydroisobenzofuran-1-yl)pyrrolidine] | + (LOQ ≤ + <5%) | ++ (5% ≤ ++ <25%) | ++ (5% ≤ ++ <25%) | ++ (5% ≤ ++ <25%) | ++++ (50% ≤ ++++) | + (LOQ ≤ + <5%) | + (LOQ ≤ + <5%) | + (LOQ ≤ + <5%) | ++ (5% ≤ ++ <25%) | + (LOQ ≤ + <5%) |
| N#Cc1ccc2c(c1)CCO[C@@H]2[C@H]1CCCN1 [Compound I-46, (S)-1-((R)-pyrrolidin-2-yl)isochroman-6-carbonitrile] | + (LOQ ≤ + <5%) | ++ (5% ≤ ++ <25%) | ++ (5% ≤ ++ <25%) | ++ (5% ≤ ++ <25%) | ++ (5% ≤ ++ <25%) | + (LOQ ≤ + <5%) | + (LOQ ≤ + <5%) | ++++ (50% ≤ ++++) | ++ (5% ≤ ++ <25%) | + (LOQ ≤ + <5%) |
| Clc1ccc2c(c1)CCO[C@@H]2[C@H]1CCCN1 [Compound I-36, (R)-2-((S)-6-chloroisochroman-1-yl)pyrrolidine] | + (LOQ ≤ + <5%) | ++ (5% ≤ ++ <25%) | ++ (5% ≤ ++ <25%) | ++ (5% ≤ ++ <25%) | ++ (5% ≤ ++ <25%) | + (LOQ ≤ + <5%) | ++ (5% ≤ ++ <25%) | +++ (25% ≤ +++ <50%) | + (LOQ ≤ + <5%) | ++ (5% ≤ ++ <25%) |
| CC1(C)CN[C@H]([C@@H]2OCCc3ccccc32)C1 [Compound I-59, (S)-2-((R)-isochroman-1-yl)-4,4-dimethylpyrrolidine] | + (LOQ ≤ + <5%) | + (LOQ ≤ + <5%) | ++ (5% ≤ ++ <25%) | ++ (5% ≤ ++ <25%) | ++ (5% ≤ ++ <25%) | + (LOQ ≤ + <5%) | ++ (5% ≤ ++ <25%) | ++ (5% ≤ ++ <25%) | + (LOQ ≤ + <5%) | + (LOQ ≤ + <5%) |
| FC1(F)CN[C@H]([C@H]2OCCc3ccccc32)C1 [Compound I-63, (S)-4,4-difluoro-2-((S)-isochroman-1-yl)pyrrolidine] | + (LOQ ≤ + <5%) | + (LOQ ≤ + <5%) | + (LOQ ≤ + <5%) | + (LOQ ≤ + <5%) | + (LOQ ≤ + <5%) | + (LOQ ≤ + <5%) | + (LOQ ≤ + <5%) | + (LOQ ≤ + <5%) | + (LOQ ≤ + <5%) | + (LOQ ≤ + <5%) |
| COc1cccc2c1[C@H]([C@@H]1CCCN1)OCC2 [Compound I-47, (S)-2-((R)-8-methoxyisochroman-1-yl)pyrrolidine] | + (LOQ ≤ + <5%) | + (LOQ ≤ + <5%) | ++ (5% ≤ ++ <25%) | + (LOQ ≤ + <5%) | + (LOQ ≤ + <5%) | + (LOQ ≤ + <5%) | + (LOQ ≤ + <5%) | + (LOQ ≤ + <5%) | + (LOQ ≤ + <5%) | + (LOQ ≤ + <5%) |

Same assay, conditions: i.p. 15 min before behavioral test, most efficacious dose(s) of 3 doses

| Structure (SMILES) | XG: anxiogenic (probability that behavioral signature matches class) |
| --- | --- |
| Fc1cccc2c1[C@H]([C@H]1CCCN1)OCC2 [Compound I-4, (R)-2-((R)-8-fluoroisochroman-1-yl)pyrrolidine] | + (LOQ ≤ + <5%) |
| CC1(C)CN[C@H]([C@H]2OCCc3ccccc32)C1 [Compound I-60, (S)-2-((S)-isochroman-1-yl)-4,4-dimethylpyrrolidine] | + (LOQ ≤ + <5%) |
| Cc1cccc2c1[C@@H]([C@H]1CCCN1)OCC2 [Compound I-24, (R)-2-((S)-8-methylisochroman-1-yl)pyrrolidine] | + (LOQ ≤ + <5%) |
| Fc1cccc2c1CCO[C@H]2[C@@H]1CCCN1 [Compound I-13, (S)-2-((R)-5-fluoroisochroman-1-yl)pyrrolidine] | + (LOQ ≤ + <5%) |
| c1cc(-c2ccc3c(c2)CCO[C@H]3[C@@H]2CCCN2)on1 [Compound I-56, 5-((R)-1-((S)-pyrrolidin-2-yl)isochroman-6-yl)isoxazole] | + (LOQ ≤ + <5%) |
| C[C@]1([C@H]2CCCN2)OCc2cc(F)ccc21 [Compound I-125, (R)-2-((S)-5-fluoro-1-methyl-1,3-dihydroisobenzofuran-1-yl)pyrrolidine] | + (LOQ ≤ + <5%) |
| N#Cc1ccc2c(c1)CCO[C@@H]2[C@H]1CCCN1 [Compound I-46, (S)-1-((R)-pyrrolidin-2-yl)isochroman-6-carbonitrile] | + (LOQ ≤ + <5%) |
| Clc1ccc2c(c1)CCO[C@@H]2[C@H]1CCCN1 [Compound I-36, (R)-2-((S)-6-chloroisochroman-1-yl)pyrrolidine] | + (LOQ ≤ + <5%) |
| CC1(C)CN[C@H]([C@@H]2OCCc3ccccc32)C1 [Compound I-59, (S)-2-((R)-isochroman-1-yl)-4,4-dimethylpyrrolidine] | + (LOQ ≤ + <5%) |
| FC1(F)CN[C@H]([C@H]2OCCc3ccccc32)C1 [Compound I-63, (S)-4,4-difluoro-2-((S)-isochroman-1-yl)pyrrolidine] | + (LOQ ≤ + <5%) |
| COc1cccc2c1[C@H]([C@@H]1CCCN1)OCC2 [Compound I-47, (S)-2-((R)-8-methoxyisochroman-1-yl)pyrrolidine] | + (LOQ ≤ + <5%) |
